Test results from PubChem BioAssay (NCI).
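Test compounds were applied to cells in 96-well plates for 48 hours at 5 doses. The concentration for 50% growth inhibition is given as GI50. TGI marks complete inhibition of growth.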

Assays:
Assay in all cases: inhibition of tumour cell growth, NCI panel, 48 h
[1] = system: UO-31 renal
[2] = system: UACC-257 melanoma
[3] = system: HOP-62 NSCLC
[4] = system: OVCAR-4 ovarian
[5] = system: A549 NSCLC
[6] = system: SN12C renal
[7] = system: TK-10 renal
[8] = system: BT-549 breast
[9] = system: OVCAR-8 ovarian
[10] = system: HL-60(TB) leukemia
[11] = system: EKVX NSCLC
[12] = system: IGROV1 ovarian
[13] = system: 786-0 renal
[14] = system: MOLT-4 leukemia
[15] = system: HT29 colon
[16] = system: COLO 205 colon
[17] = system: LOX IMVI melanoma
[18] = system: NCI-H522 lung
[19] = system: MDA-MB-231 breast
[20] = system: NCI/ADR-RES ovarian
[21] = system: NCI-H226 lung
[22] = system: OVCAR-5 ovarian
[23] = system: SF-539 CNS
[24] = system: OVCAR-3 ovarian
[25] = system: NCI-H23 lung
[26] = system: A498 renal
[27] = system: SW-620 colon
[28] = system: DU-145 prostate
[29] = system: SF-268 CNS
[30] = system: RPMI-8226 leukemia
[31] = system: CCRF-CEM leukemia
[32] = system: MDA-MB-435
[33] = system: HCT-15 colon
[34] = system: M14 melanoma
[35] = system: SR leukemia
[36] = system: HOP-92 NSCLC
[37] = system: HCT-116 colon
[38] = system: HCC-2998 colon
[39] = system: NCI-H460 lung
[40] = system: RXF 393 renal
[41] = system: SK-MEL-28 melanoma
[42] = system: T-47D breast
[43] = system: KM12 colon
[44] = system: ACHN renal
[45] = system: UACC-62 melanoma
[46] = system: HS 578T breast
[47] = system: SF-295 CNS
[48] = system: K-562 leukemia
[49] = system: SK-OV-3 ovarian
[50] = system: MALME-3M melanoma
[51] = system: SK-MEL-5 melanoma
[52] = system: MCF7 breast
[53] = system: PC-3 prostate
[54] = system: SNB-75 CNS
[55] = system: U251 CNS
[56] = system: SNB-19 CNS

Compound: CC/C(=C(\c1ccc(Cl)cc1)c1ccc(OCCN2CCCCC2)cc1)c1ccc(O)cc1
- GI50 [1]: 1370 nM
- TGI [1]: 2660 nM
- GI50 [2]: 1830 nM
- TGI [2]: 3940 nM
- GI50 [3]: 1770 nM
- TGI [3]: 3480 nM
- GI50 [4]: 1970 nM
- TGI [4]: 4350 nM
- GI50 [5]: 1810 nM
- TGI [5]: 3700 nM
- GI50 [6]: 1690 nM
- TGI [6]: 3230 nM
- GI50 [7]: 1960 nM
- TGI [7]: 4580 nM
- GI50 [8]: 2060 nM
- TGI [8]: 4200 nM
- GI50 [9]: 2110 nM
- TGI [9]: 5200 nM
- GI50 [10]: 1910 nM
- TGI [10]: 4170 nM
- GI50 [11]: 1910 nM
- TGI [11]: 4350 nM
- GI50 [12]: 1910 nM
- TGI [12]: 3940 nM
- GI50 [13]: 1810 nM
- TGI [13]: 3430 nM
- GI50 [14]: 1760 nM
- TGI [14]: 4430 nM
- GI50 [15]: 2190 nM
- TGI [15]: 5090 nM
- GI50 [16]: 1820 nM
- TGI [16]: 3860 nM
- GI50 [17]: 1670 nM
- TGI [17]: 3030 nM
- GI50 [18]: 2010 nM
- TGI [18]: 4440 nM
- GI50 [19]: 1810 nM
- TGI [19]: 3290 nM
- GI50 [20]: 1750 nM
- TGI [20]: 3800 nM
- GI50 [21]: 1850 nM
- TGI [21]: 4340 nM
- GI50 [22]: 1860 nM
- TGI [22]: 4040 nM
- GI50 [23]: 1700 nM
- TGI [23]: 3110 nM
- GI50 [24]: 1910 nM
- TGI [24]: 3630 nM
- GI50 [25]: 1880 nM
- TGI [25]: 3840 nM
- GI50 [26]: 3310 nM
- TGI [26]: 16500 nM
- GI50 [27]: 1750 nM
- TGI [27]: 3420 nM
- GI50 [28]: 1870 nM
- TGI [28]: 3580 nM
- GI50 [29]: 1750 nM
- TGI [29]: 3800 nM
- GI50 [30]: 1860 nM
- TGI [30]: 4100 nM
- GI50 [31]: 1910 nM
- TGI [31]: 4930 nM
- GI50 [32]: 1720 nM
- TGI [32]: 3200 nM
- GI50 [33]: 1610 nM
- TGI [33]: 3150 nM
- GI50 [34]: 1880 nM
- TGI [34]: 3770 nM
- GI50 [35]: 1900 nM
- TGI [35]: 4510 nM
- GI50 [36]: 1500 nM
- TGI [36]: 3200 nM
- GI50 [37]: 1980 nM
- TGI [37]: 4260 nM
- GI50 [38]: 1850 nM
- TGI [38]: 3460 nM
- GI50 [39]: 1820 nM
- TGI [39]: 3370 nM
- GI50 [40]: 1450 nM
- TGI [40]: 2920 nM
- GI50 [41]: 1770 nM
- TGI [41]: 3330 nM
- GI50 [42]: 1220 nM
- TGI [42]: 3830 nM
- GI50 [43]: 1900 nM
- TGI [43]: 3740 nM
- GI50 [44]: 1700 nM
- TGI [44]: 3080 nM
- GI50 [45]: 1710 nM
- TGI [45]: 3250 nM
- GI50 [46]: 1780 nM
- TGI [46]: 4510 nM
- GI50 [47]: 1720 nM
- TGI [47]: 3130 nM
- GI50 [48]: 1600 nM
- TGI [48]: 4620 nM
- GI50 [49]: 2010 nM
- TGI [49]: 4880 nM
- GI50 [50]: 1750 nM
- TGI [50]: 3330 nM
- GI50 [51]: 1680 nM
- TGI [51]: 3040 nM
- GI50 [52]: 62.2 nM
- TGI [52]: 2630 nM
- GI50 [53]: 1660 nM
- TGI [53]: 3360 nM
- GI50 [54]: 1490 nM
- TGI [54]: 3640 nM
- GI50 [55]: 1600 nM
- TGI [55]: 3160 nM
- GI50 [56]: 1900 nM
- TGI [56]: 3540 nM
